Like-named read-outs stand apart in the source and are kept apart here.
Experiments:
[1] = In vivo pharmacokinetic experiment: oral rivaroxaban in rats with or without ticagrelor pre-treatment (plasma, UPLC-MS/MS); parameters: species or system Sprague-Dawley rats; conditions: for AUC(0-t) / AUC(0-inf) / Cmax / half-life / MRT inf / MRT last: po; for MRT inf: read-out: MRT (0–∞); for MRT last: read-out: MRT(0–t); for CLint scaled: read-out: CL (text: intrinsic clearance) (converted)
Experimental: Chromatographic separation was performed using the Acquity UPLC system (Waters Corp., Milford, MA, USA) and ACQUITY UPLC HSS T3 column (2.1 × 100 mm, 1.8 μm) at 40 °C. The mobile phase comprising acetonitrile (A) and 0.1% formic acid water (B) was set with a flow rate of 0.40 mL/min. The gradient programme was applied as follows: 0–0.5 min, 30% A; 0.5–1 min, 30–95% A; 1–2 min, 95% A; […], 95% A; 2.5–2.6 min, 95–30% A; 2.6–3 min, 30% A. The total time required for analysis was 3 min. The sample manager underwent a strong wash (methanol water, 50/50, V/V) and a weak wash (methanol water, 10/90, V/V) after each injection.
XEVO TQD triple quadrupole mass spectrometer was equipped with electrospray ionization (ESI), and multiple-reaction monitoring (MRM) mode was selected for quantization. The precursor ion and product ion were m/z 435.93→144.81 for rivaroxaban and m/z 285.1→193.1 for diazepam (internal standard, IS), respectively. The optimal MS parameters were defined as follows: the cone voltages were set at 35 V and 50 V for rivaroxaban and IS; the collision energies were set at 30 V and 25 V for rivaroxaban and IS. Masslynx 4.1 software (Waters Corp., Milford, MA, USA) was used for data acquisition, and the UPLC-MS/MS chromatogram of blank plasma that was spiked with rivaroxaban and IS was shown below (Figure 2).
Ten specific pathogen-free (SPF) grade Sprague–Dawley rats (male, 220 ± 20 g) were provided by Wenzhou Medical University Laboratory Animal Research Centre. All experimental procedures and protocols were reviewed and approved by the Animal Care and Use Committee of Wenzhou Medical University and were in accordance with the Guide for the Care and Use of Laboratory Animals (ID Number: wydw2019-650). Ten rats were randomly divided into two groups: the ticagrelor group (n = 5) and the control group (n = 5). Rats were bred at 25 °C with 60 ± 5% humidity and a 12 h dark/light cycle. Enough tap water and normal chow were provided ad libitum. The rats were placed under the above conditions for one week before initiating the experiment.
The ticagrelor group was pre-treated with ticagrelor by oral gavage at a dose of 10 mg/kg/day (dissolved in CMC-Na solution) for two weeks before the administration of rivaroxaban. The control group also received equal amounts of the vehicle (CMC-Na solution). Rivaroxaban was dissolved in dimethyl sulfoxide (DMSO) and was then diluted with polyethylene glycol 200 so that DMSO accounted for 5% of the total volume. Each group of rats was given an oral gavage of rivaroxaban at a dose of 10 mg/kg, and then blood was collected via the rat’s tail vein for analysis at 0.083, 0.25, 0.5, 1, 2, 3, 4, 6, 8, 12 and 24 h. Samples were collected into 1.5 mL centrifuge tubes and were immediately centrifuged at 4000 rpm for 10 min.
Every 100 µL of rat plasma was added with 200 µL of acetonitrile in 0.5 μg/mL of IS, followed by vortex mixing for 1 min. After centrifugation at 13000 rpm for 15 min, 5 µL of supernatant was prepared for UPLC-MS/MS system to analyse.
The GraphPad (version 8.0; GraphPad Software Inc., San Diego, CA, USA) was applied to calculate IC50 and plot plasma concentration-time curves. The pharmacokinetic parameters using non-compartmental analysis were calculated by DAS (version 3.2.8; Wenzhou Medical University, China). Statistical comparisons within groups were conducted by SPSS (version 25.0; SPSS Inc., Chicago, IL, USA), using Student’s t-test. Values of p < 0.05 were considered statistically significant.

[2] = parameters: method as in Eriksson et al. [2009]; Altena et al. [2014]; conditions: with CYP3A4 inducer rifampicin; ref Eriksson et al. [2009]; Altena et al. [2014]; cited from earlier work
CYP3A4 = system: CYP3A4; parameters: method as in Kvasnicka et al. [2017]; conditions: ref Kvasnicka et al. [2017]; cited from earlier work
[3] = system: rat liver microsomes (RLMs); assay: Enzyme kinetics of rivaroxaban metabolism in rat liver microsomes; format: in vitro ADME, Sprague-Dawley rat; conditions: RLMs 0.5 mg/mL, 30 min, 37 °C, 1 mM NADPH, R squared 0.979
Experimental: (§1) The pooled rat liver microsomes (RLMs) were obtained from 8 rats, which were weighed and homogenized with cold […] phosphate-buffered saline (PBS) containing 0.25 mM sucrose. After centrifuging at 11000 rpm for 15 min, the supernatants were separated and transferred into new tubes for another 15 min centrifugation at 11000 rpm. Then ultracentrifugation was performed at 10000 rpm at 4 °C for 1 h, and the microsomal pellets were resuspended with cold 0.01 mM PBS and stored at −80 °C. The protein concentration of RLMs was determined using the Bradford Protein Assay Kit (Thermo Scientific, Waltham, MA, USA). […] The incubation time was 30 min. Incubations were initiated following a 5 min pre-incubation in a shaking water bath at 37 °C. 1 mM NADPH was added to initiate the reaction in a final volume of 200 μL. The reaction was stopped immediately by cooling to −80 °C. After that, 20 μL IS working solution and 200 μL acetonitrile were added. Centrifugation was performed at 13000 rpm for 5 min after vortexing for 1 min, and the supernatant was collected. Each incubation sample study was performed in separate EP tubes, performed in triplicate and analysed by UPLC-MS/MS. We selected 2 μL of RLMs with a concentration of 0.5 mg/mL in PBS for 30 minutes as the condition for enzyme kinetic studies. […]

[4] = as above; format: in vitro ADME, Sprague-Dawley rat; conditions: Sprague-Dawley, rat, rat liver microsomes, pH 7.4, RLMs 0.5 mg/mL, 37 °C, 1 mM NADPH, R squared 0.979
Experimental: as §1

CYP2J2 = system: CYP2J2; parameters: method as in Kvasnicka et al. [2017]; conditions: ref Kvasnicka et al. [2017]; cited from earlier work
[5] = parameters: method as in Mueck et al. [2013]; conditions: co-administration of ketoconazole; ref Mueck et al. [2013]; cited from earlier work
[6] = parameters: method as in Abrams and Emerson [2009]; conditions: phase I trials; ref Abrams and Emerson [2009]; cited from earlier work
[7] = parameters: method as in Mega et al. [2012]; conditions: low-dose rivaroxaban (2.5 mg or 5 mg twice daily) co-administered with DAPT; ref Mega et al. [2012]; cited from earlier work
[8] = parameters: method as in Becker et al. [2011]; conditions: PLATO study; ref Becker et al. [2011]; cited from earlier work
[9] = parameters: method as in Teng and Butler [2013]; conditions: concomitant use of ticagrelor; ref Teng and Butler [2013]; cited from earlier work
[10] = parameters: method as in Butler and Teng [2011]; conditions: oral administration of ticagrelor, healthy volunteers; ref Butler and Teng [2011]; cited from earlier work
[11] = system: CYP3A4 (4-hydroxylation of midazolam); parameters: method as in Zhou et al. [2011]; conditions: read-out: IC50 (inhibition of 4-hydroxylation of midazolam); in vitro; ref Zhou et al. [2011]; cited from earlier work
[12] = system: rivaroxaban metabolism in RLMs; assay: In vitro interaction study: inhibition of rivaroxaban metabolism by ticagrelor in RLMs; format: in vitro ADME, Sprague-Dawley rat; conditions: read-out: IC50 (ticagrelor decreased rivaroxaban metabolic clearance)
Experimental: The pooled rat liver microsomes (RLMs) were obtained from 8 rats, which were weighed and homogenized with cold […] phosphate-buffered saline (PBS) containing 0.25 mM sucrose. After centrifuging at 11000 rpm for 15 min, the supernatants were separated and transferred into new tubes for another 15 min centrifugation at 11000 rpm. Then ultracentrifugation was performed at 10000 rpm at 4 °C for 1 h, and the microsomal pellets were resuspended with cold 0.01 mM PBS and stored at −80 °C. The protein concentration of RLMs was determined using the Bradford Protein Assay Kit (Thermo Scientific, Waltham, MA, USA).
Ticagrelor was applied as the inhibitor to determine the half-maximal inhibitory concentration (IC50). The incubation mixture in a total volume of 200 μL contained 0.5 mg/mL of RLMs, 100 mM potassium phosphate buffer (pH 7.4), rivaroxaban (20 μM), ticagrelor (1, 2.5, 5, 10, 25, 50 and 100 μM) and 1 mM NADPH. After preincubation in a shaking water bath at 37 °C for 5 min, NADPH was added to initiate the reaction in a final volume of 200 μL. […]
The GraphPad (version 8.0; GraphPad Software Inc., San Diego, CA, USA) was applied to calculate IC50 and plot plasma concentration-time curves. The pharmacokinetic parameters using non-compartmental analysis were calculated by DAS (version 3.2.8; Wenzhou Medical University, China). […]

[13] = male, Sprague-Dawley, rat, plasma, 10 mg/kg, rivaroxaban 10 mg/kg oral, rats pre-treated with ticagrelor 10 mg/kg/day for 14 days
[14] = male, Sprague-Dawley, rat, plasma, 10 mg/kg, rivaroxaban 10 mg/kg oral, rats, control group (no ticagrelor)
[15] = male, Sprague-Dawley, rat, plasma, 10 mg/kg, rivaroxaban 10 mg/kg oral, rats, without ticagrelor pre-treatment
[16] = male, Sprague-Dawley, rat, plasma, rivaroxaban 10 mg/kg oral, rats, control group (no ticagrelor)
[17] = rats, oral ticagrelor 10 mg/kg/day for 14 days vs control
[18] = rivaroxaban 10 mg/kg oral, rats pre-treated with ticagrelor 10 mg/kg/day for 14 days

Structure (SMILES): O=C(NC[C@H]1CN(c2ccc(N3CCOCC3=O)cc2)C(=O)O1)c1ccc(Cl)s1 [Rivaroxaban]
- AUC(0-t) ([1]; male, Sprague-Dawley, rat, plasma, 10 mg/kg, rivaroxaban 10 mg/kg oral single dose, rats pre-treated with ticagrelor 10 mg/kg/day oral for 14 days, n=5, mean ± SD): 3480 ± 754 ng·h/mL
- AUC(0-t) ([1]; male, Sprague-Dawley, rat, plasma, 10 mg/kg, rivaroxaban 10 mg/kg oral single dose, rats, control group (vehicle, no ticagrelor), n=5, mean ± SD): 1060 ± 291 ng·h/mL
- AUC(0-inf) [1, 13]: 3580 ± 736 ng·h/mL
- Cmax [1, 13]: 691 ± 238 ng/mL
- half-life [1, 13]: 5.12 ± 1.65 h
- MRT inf [1, 13]: 5.97 ± 1.11 h
- MRT last [1, 13]: 5.18 ± 0.91 h
- AUC(0-inf) [1, 14]: 1070 ± 299 ng·h/mL
- Cmax [1, 14]: 221 ± 53.3 ng/mL
- half-life [1, 14]: 2.64 ± 0.72 h
- MRT inf [1, 14]: 4.41 ± 0.79 h
- MRT last [1, 14]: 4.32 ± 0.66 h
- AUC(0-t) ([1]; male, Sprague-Dawley, rat, plasma, 10 mg/kg, rivaroxaban 10 mg/kg oral, rats with ticagrelor pre-treatment 10 mg/kg/day for 14 days): 3480 ± 754 ng·h/mL
- AUC(0-inf) [1, 15]: 1070 ± 299 ng·h/mL
- AUC(0-t) [1, 15]: 1060 ± 291 ng·h/mL
- AUC(0-inf) ([1]; male, Sprague-Dawley, rat, plasma, rivaroxaban 10 mg/kg oral, rats with ticagrelor pre-treatment 10 mg/kg/day for 14 days): 3580 ± 736 ng·h/mL
- CLint scaled ([1]; male, Sprague-Dawley, rat, plasma, rivaroxaban 10 mg/kg oral, rats pre-treated with ticagrelor 10 mg/kg/day for 14 days): 48.2 mL/min/kg
- Tmax [1, 16]: 2 ± 0.71 h
- CLint scaled [1, 16]: 166 mL/min/kg
- increase of AUC value of rivaroxaban [1, 17]: 3.3 fold
- increase of Cmax value of rivaroxaban [1, 17]: 3.1 fold
- T max [1, 18]: 2.00 ± 0.71 h
- Vz [1, 18]: 21.89 ± 9.00 L/kg
- Vz ([1]; rivaroxaban 10 mg/kg oral, rats, control group (no ticagrelor)): 36.23 ± 5.48 L/kg
- reduction in the systemic exposure of rivaroxaban [2]: 50%
- share of total rivaroxaban elimination involving CYP3A4 (CYP3A4): about 18%
- Vmax [3]: 3.37 pmol/min/mg
- Km at 30 min [4]: 19.1 µM
- share of total rivaroxaban elimination involving CYP2J2 (CYP2J2): about 14%
- increase in Cmax value of rivaroxaban [5]: 1.7 fold
- increase in the mean AUC value of rivaroxaban [5]: 2.6 fold
- time to peak plasma concentration (Tmax) [6]: 1.5 to 4 h
- risk of intracranial hemorrhage [7]: 0.6%
- risk of major bleeding [7]: 2.1%

Structure (SMILES): COC(=O)[C@H](c1ccccc1Cl)N1CCc2sccc2C1 [clopidogrel]
- non-CABG major bleeding [8]: 3.8%
- non-procedure-related major bleeding [8]: 2.3%

Structure (SMILES): C[C@H]1O[C@@H](O[C@H]2[C@@H](O)C[C@H](O[C@H]3[C@@H](O)C[C@H](O[C@H]4CC[C@@]5(C)[C@H](CC[C@@H]6[C@@H]5C[C@@H](O)[C@]5(C)[C@@H](C7=CC(=O)OC7)CC[C@]65O)C4)O[C@@H]3C)O[C@@H]2C)C[C@H](O)[C@@H]1O [digoxin]
- increase of digoxin AUC [9]: 28%
- increase of digoxin Cmax [9]: 75%

Structure (SMILES): C#C[C@]1(O)CC[C@H]2[C@@H]3CCc4cc(O)ccc4[C@H]3CC[C@@]21C [ethinyloestradiol]
- increase of AUC0–t of ethinyloestradiol [10]: 20%
- increase of Cmax of ethinyloestradiol [10]: 31%
- increase of Cmin of ethinyloestradiol [10]: 20%

Structure (SMILES): CCCSc1nc(N[C@@H]2C[C@H]2c2ccc(F)c(F)c2)c2nnn([C@@H]3C[C@H](OCCO)[C@@H](O)[C@H]3O)c2n1 [ticagrelor, Ticagrelor]
- non-CABG major bleeding [8]: 4.5%
- non-procedure-related major bleeding [8]: 3.1%
- IC50 [12]: 14 µM

Reference: article PMC7470163, “Effects of ticagrelor on the pharmacokinetics of rivaroxaban in rats” (Pharmaceutical Biology, 2020)
